Consider three compounds from patent US10072038B2, “Crystal of ammonium N-acetylneuraminate anhydrate, and process for producing same” (KYOWA HAKKO BIO CO., LTD., priority 2015, dated 2018).

A short description of data set [1]: Weight change (moisture absorption) under an atmosphere of 25° C. and a humidity of 60%. Type of data set: physicochemical. Conditions: humidity 60%; for weight increase due to moisture absorption: up to 24 h. How it is done:
With respect to the crystal of NeuAc ammonium salt anhydrate and the noncrystalline amorphous NeuAc ammonium salt acquired in Reference Example 1, the weight change under an atmosphere of 25° C. and a humidity of 60% was compared, and the results are shown in Table 5.

A short description of data set [2]: Measurement of degree of solubility in water (HPLC of supernatant). In kind it is physicochemical. Conditions: FIG. 5; compared with crystal of known NeuAc dihydrate. How it is done:
(2) Measurement of Degree of Solubility
A crystal of NeuAc ammonium salt anhydrate, or a crystal of known NeuAc dihydrate was added to water adjusted to the respective temperatures until each crystal remained undissolved and after keeping the solution for a sufficient time under stirring, the supernatant containing no crystal was collected, and the concentration of NeuAc therein was measured using the following HPLC conditions.
Guard column: Shodex SUGAR SH-G ϕ6.0×50 mm
Column: SUGAR SH1011 ϕ8.0×300 mm×2 columns in series
Column temperature: 60° C.
Buffer: an aqueous 0.005 mol/L sulfuric acid solution
Detector: UV detector (wavelength: 210 nm)
The degrees of solubility in water of the crystal of NeuAc ammonium salt anhydrate obtained above and a crystal of NeuAc dihydrate are illustrated in FIG. 5.

Data set [3] in a line: pH of aqueous solution of the crystal. Type of data set: physicochemical. Conditions: aqueous solution at 100 g/L in terms of NeuAc ammonium salt. How it is done: As for the pH, an aqueous solution at 100 g/L in terms of NeuAc ammonium salt was measured.
The nature of data set [4]: Degree of coloration when stored in a closed system at 60° C. (transmittance at 430 nm). Type of data set: physicochemical. The settings on record: for Transmittance T % 430 nm: stored in closed system at 60° C., solution 100 g/L in terms of an anhydrate, 1 cm. How it is done: With respect to the crystal of NeuAc ammonium salt anhydrate and a crystal of known NeuAc dihydrate, the degree of coloration when stored in a closed system at 60° C. was compared, and the results are shown in Table 8. The degree of coloration is expressed by transmittance T % 430 nm=100×10^−A (A=Abs: 430 nm, 1 cm), which was obtained by dissolving each crystal at 100 g/L in terms of an anhydrate and performing measurement for the solution.

The nature of data set [5]: Stability under high temperature conditions judged from melting point. In kind it is physicochemical. The settings on record: inferred from melting point 166.2° C. vs around 105° C. of known monohydrate. How it is done:
(5) Measurement of Melting Point
The measurement was performed using Melting Point M-565 (manufactured by BUCHI) according to the instruction book.
In addition, the melting point of the crystal of NeuAc ammonium salt anhydrate is 166.2° C. and is higher than the melting point of around 105° C. of known NeuAc ammonium salt monohydrate salt.

For data set [6] the following is noted: normal temperature; cited from earlier work.
The conditions of data set [7]: cited from earlier work.

For the compound `CC(=O)N[C@H]1[C@H]([C@H](O)[C@H](O)CO)OC(O)(C(=O)O)C[C@@H]1O.N` (stereo partly drawn) [Noncrystalline amorphous, NeuAc ammonium salt, reference compound], the “Rate of weight change” value was 6.58% in data set [1] (elapsed time 3 h, ammonium salt); 10.4% in data set [1] (elapsed time 7 h, ammonium salt); 13.5% in data set [1] (elapsed time 24 h, ammonium salt). The “weight increase due to moisture absorption” value in data set [1] (listed as noncrystalline amorphous NeuAc ammonium salt, ammonium salt) is given as “marked weight increase due to moisture absorption”. Besides, in data set [1] (when 24 hours had passed), the deliquescence entry is “deliquesced”.
Regarding `CC(=O)N[C@H]1[C@H]([C@H](O)[C@H](O)CO)OC(O)(C(=O)O)C[C@@H]1O.N` (stereo partly drawn) [Crystal of ammonium salt, ammonium N-acetylneuraminate anhydrate], in data set [2], the “degree of solubility in water” value is on record as “large degree of solubility compared with the degree of solubility of the crystal of known NeuAc dihydrate”. Further, the “Rate of weight change” value is reported as 0.00% in data set [1] (elapsed time 0 h), −0.08% in data set [1] (elapsed time 3 h), −0.10% in data set [1] (elapsed time 7 h) and −0.06% in data set [1] (elapsed time 24 h). The “weight increase due to moisture absorption” value in data set [1] (listed as crystal of NeuAc ammonium salt anhydrate) is reported as “a weight increase was not observed”. Besides, the pH was determined as 7.07 in data set [3] (listed as Example 1), 6.60 in data set [3] (listed as Example 2) and 6.39 in data set [3] (listed as Example 3). Besides, in data set [4] (closed system at 60° C., compared with crystal of known NeuAc dihydrate), the coloration during storage entry is on record as “extremely low”. The “Transmittance T % 430 nm” value in data set [4] (0 days) came out at 99.73%; in data set [4] (3 days), 98.87%; in data set [4] (6 days), 98.49%. Besides, the “stability under high temperature conditions” value in data set [5] was “stable even under high temperature conditions”.
`CC(=O)N[C@H]1[C@H]([C@H](O)[C@H](O)CO)OC(O)(C(=O)O)C[C@@H]1O` (stereo partly drawn) [Dihydrate crystal, N-Acetylneuraminic acid, reference compound]: the degree of solubility entry in data set [6] is given as “about 100 g/L”. In addition, the “storage stability (discoloration of crystal and solution)” value in data set [7] was “gradually discolored to dark brown”. Further, the entries for the “Transmittance T % 430 nm” value in data set [4] (0 days), in data set [4] (3 days) and in data set [4] (6 days) were 100.1%, 73.26% and 50.46%, respectively.
